# According to PubChem BioAssay AID1918940 (Molecular Pharmacology Branch, DTP, NCI, 2023):
# System: NCI-H211 complex spheroid viability
# Assay: Anticancer human tumor NCI-H211 cell line growth inhibition [LSD1];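 also: luminescent viability read after seven days of drug exposure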;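 as to viability, T/C: 100% = DMSO vehicle control viability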
# Conditions: for IC50: curve of first compound; for viability, T/C: stronger effect = lower value
# Procedure, shortened: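 Multicellular complex spheroids of tumor cells with human endothelial cells (HUVEC) and mesenchymal stem cells; the LSD1 inhibitor iadademstat was combined with standard-of-care or investigational agents. Top concentration at or near clinical Cmax, half-log dilutions; final DMSO ≤0.25%.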
# [1] = second compound 0.1 µM, first compound 0.00316 µM
# [2] = second compound 0.1 µM, first compound 0.01 µM
# [3] = second compound 0.1 µM, first compound 0.0316 µM
# [4] = second compound 0.1 µM, first compound 0.1 µM
# [5] = second compound 0.1 µM, first compound 0.316 µM
# [6] = second compound 0.1 µM, first compound 1 µM
# [7] = second compound 0.316 µM, first compound 0.00316 µM
# [8] = second compound 0.316 µM, first compound 0.01 µM
# [9] = second compound 0.316 µM, first compound 0.0316 µM
# [10] = second compound 0.316 µM, first compound 0.1 µM
# [11] = second compound 0.316 µM, first compound 0.316 µM
# [12] = second compound 0.316 µM, first compound 1 µM
# [13] = second compound 1 µM, first compound 0.00316 µM
# [14] = second compound 1 µM, first compound 0.01 µM
# [15] = second compound 1 µM, first compound 0.0316 µM
# [16] = second compound 1 µM, first compound 0.1 µM
# [17] = second compound 1 µM, first compound 0.316 µM
# [18] = second compound 1 µM, first compound 1 µM
# [19] = second compound 3.16 µM, first compound 0.00316 µM
# [20] = second compound 3.16 µM, first compound 0.01 µM
# [21] = second compound 3.16 µM, first compound 0.0316 µM
# [22] = second compound 3.16 µM, first compound 0.1 µM
# [23] = second compound 3.16 µM, first compound 0.316 µM
# [24] = second compound 3.16 µM, first compound 1 µM
# [25] = second compound 10 µM, first compound 0.00316 µM
# [26] = second compound 10 µM, first compound 0.01 µM
# [27] = second compound 10 µM, first compound 0.0316 µM
# [28] = second compound 10 µM, first compound 0.1 µM
# [29] = second compound 10 µM, first compound 0.316 µM
# [30] = second compound 10 µM, first compound 1 µM
smiles,measurement,setting,value
O=C(C=Cn1cnc(-c2cc(C(F)(F)F)cc(C(F)(F)F)c2)n1)NNc1cnccn1 + NC1CC1c1ccc(-c2cccc(O)c2)cc1,IC50,second compound 0.1 µM,< 3.16 nM
same,IC50,second compound 0.316 µM,< 3.16 nM
same,IC50,second compound 1 µM,< 3.16 nM
same,IC50,second compound 3.16 µM,< 3.16 nM
same,IC50,second compound 10 µM,< 3.16 nM
same,"viability, T/C",[1],45.6%
same,"viability, T/C",[2],35.5%
same,"viability, T/C",[3],16.3%
same,"viability, T/C",[4],6.54%
same,"viability, T/C",[5],2.54%
same,"viability, T/C",[6],2.3%
same,"viability, T/C",[7],29.8%
same,"viability, T/C",[8],29%
same,"viability, T/C",[9],14.4%
same,"viability, T/C",[10],6.98%
same,"viability, T/C",[11],2.61%
same,"viability, T/C",[12],2.22%
same,"viability, T/C",[13],38.4%
same,"viability, T/C",[14],32.6%
same,"viability, T/C",[15],12.8%
same,"viability, T/C",[16],6.89%
same,"viability, T/C",[17],3.1%
same,"viability, T/C",[18],2.61%
same,"viability, T/C",[19],47.7%
same,"viability, T/C",[20],29.5%
same,"viability, T/C",[21],16.6%
same,"viability, T/C",[22],7.35%
same,"viability, T/C",[23],3.74%
same,"viability, T/C",[24],2.99%
same,"viability, T/C",[25],40.6%
same,"viability, T/C",[26],28.6%
same,"viability, T/C",[27],17.8%
same,"viability, T/C",[28],9.12%
same,"viability, T/C",[29],3.24%
same,"viability, T/C",[30],3.79%
COc1cc(C2c3cc4c(cc3C(OC3OC5COC(C)OC5C(O)C3O)C3COC(=O)C23)OCO4)cc(OC)c1O (stereo not given) + NC1CCC(NC2CC2c2ccccc2)CC1,IC50,second compound 0.1 µM,9.89 nM
same,IC50,second compound 0.316 µM,9.92 nM
same,IC50,second compound 1 µM,< 9.49 nM
same,IC50,second compound 3.16 µM,< 9.49 nM
same,IC50,second compound 10 µM,< 9.49 nM
same,"viability, T/C","second compound 0.1 µM, first compound 0.00949 µM",51.4%
same,"viability, T/C","second compound 0.1 µM, first compound 0.03 µM",14.5%
same,"viability, T/C","second compound 0.1 µM, first compound 0.0949 µM",2.21%
same,"viability, T/C","second compound 0.1 µM, first compound 0.3 µM",5.34%
same,"viability, T/C","second compound 0.1 µM, first compound 0.949 µM",1.9%
same,"viability, T/C","second compound 0.1 µM, first compound 3 µM",2.19%
same,"viability, T/C","second compound 0.316 µM, first compound 0.00949 µM",51.7%
same,"viability, T/C","second compound 0.316 µM, first compound 0.03 µM",12.7%
same,"viability, T/C","second compound 0.316 µM, first compound 0.0949 µM",1.66%
same,"viability, T/C","second compound 0.316 µM, first compound 0.3 µM",2.34%
same,"viability, T/C","second compound 0.316 µM, first compound 0.949 µM",2.35%
same,"viability, T/C","second compound 0.316 µM, first compound 3 µM",2.14%
same,"viability, T/C","second compound 1 µM, first compound 0.00949 µM",46.1%
same,"viability, T/C","second compound 1 µM, first compound 0.03 µM",11.6%
same,"viability, T/C","second compound 1 µM, first compound 0.0949 µM",2.2%
same,"viability, T/C","second compound 1 µM, first compound 0.3 µM",2.36%
same,"viability, T/C","second compound 1 µM, first compound 0.949 µM",2.33%
same,"viability, T/C","second compound 1 µM, first compound 3 µM",2.08%
same,"viability, T/C","second compound 3.16 µM, first compound 0.00949 µM",42.2%
same,"viability, T/C","second compound 3.16 µM, first compound 0.03 µM",10.5%
same,"viability, T/C","second compound 3.16 µM, first compound 0.0949 µM",2.02%
same,"viability, T/C","second compound 3.16 µM, first compound 0.3 µM",2.37%
same,"viability, T/C","second compound 3.16 µM, first compound 0.949 µM",1.62%
same,"viability, T/C","second compound 3.16 µM, first compound 3 µM",1.85%
same,"viability, T/C","second compound 10 µM, first compound 0.00949 µM",18.9%
same,"viability, T/C","second compound 10 µM, first compound 0.03 µM",4.24%
same,"viability, T/C","second compound 10 µM, first compound 0.0949 µM",0.87%
same,"viability, T/C","second compound 10 µM, first compound 0.3 µM",0.66%
same,"viability, T/C","second compound 10 µM, first compound 0.949 µM",0.79%
same,"viability, T/C","second compound 10 µM, first compound 3 µM",0.69%
Nc1ncn(C2CC(O)C(CO)O2)c(=O)n1 (stereo not given) + NC1CCC(NC2CC2c2ccccc2)CC1,IC50,second compound 0.1 µM,< 3.16 nM
same,IC50,second compound 0.316 µM,< 3.16 nM
same,IC50,second compound 1 µM,< 3.16 nM
same,IC50,second compound 3.16 µM,< 3.16 nM
same,IC50,second compound 10 µM,< 3.16 nM
same,"viability, T/C",[1],26.7%
same,"viability, T/C",[2],17.8%
same,"viability, T/C",[3],7.44%
same,"viability, T/C",[4],3.11%
same,"viability, T/C",[5],1.96%
same,"viability, T/C",[6],1.81%
same,"viability, T/C",[7],35%
same,"viability, T/C",[8],16%
same,"viability, T/C",[9],9.7%
same,"viability, T/C",[10],2.44%
same,"viability, T/C",[11],1.9%
same,"viability, T/C",[12],1.78%
same,"viability, T/C",[13],33%
same,"viability, T/C",[14],16.2%
same,"viability, T/C",[15],7.52%
same,"viability, T/C",[16],3.4%
same,"viability, T/C",[17],1.88%
same,"viability, T/C",[18],1.32%
same,"viability, T/C",[19],29.3%
same,"viability, T/C",[20],17.8%
same,"viability, T/C",[21],6.93%
same,"viability, T/C",[22],2.47%
same,"viability, T/C",[23],1.82%
same,"viability, T/C",[24],1.39%
same,"viability, T/C",[25],11.7%
same,"viability, T/C",[26],5.2%
same,"viability, T/C",[27],2.56%
same,"viability, T/C",[28],0.89%
same,"viability, T/C",[29],0.77%
same,"viability, T/C",[30],0.61%
